# Experiments:
# [1] = system: delayed rectifying K^+, voltage-gated Na^+, and L-type Ca^2+ currents; set-up: method as in PMID 29477572; conditions: ref [19]; cited from earlier work
# ASIC channels [2] = conditions: ref [14],[18],[19]; cited from earlier work
# From the text: All previously known activators of ASIC channels, both exogenous and endogenous, cause a persistent, slowly desensitized current that was different in kinetic parameters from currents induced by pH drops. […] Both agonists show rapid kinetics of desensitization of the currents and have a high Hill coefficient of activation. The identical efficiency with which the toxin Mamb-2 inhibits the nocistatin- and proton ...
# ASIC3 = conditions: cited from earlier work; for Effect on ASIC3: lipids, ref [21]
# From the text: Acid-sensing ion channels (ASICs) are members of ligand-gated cation channels and belong to the degenerin/epithelial Na^+ channel superfamily. Four genes (ACCN1–ACCN4) express six subunits (ASIC1a, ASIC1b, ASIC2a, ASIC2b, ASIC3, and ASIC4), four of which can form functional homomeric channels (ASIC1a, ASIC1b, ASIC2a, and ASIC3). ASIC channels are widely expressed throughout the neurons of central and peripheral nervous systems, where they play a role in neurotransmission, synaptic plasticity, and learning, and in ischemia, neuronal cell death.
# rat ASIC3 channels = system: rat ASIC3 channels; set-up: method as in 2 sources, ref [20] = [20]; PMID 29277899; doi:10.1111/bph.14134; 20. Osmakov D.I. Koshelev S.G. Andreev Y.A. Dubinnyi M.A. Kublitski V.S. Efremov R.G. Sobolevsky A.I. Kozlov S.A. Proton-independent activation of acid-sensing ion channel 3 by an alkaloid, lindoldham ||| ref [22] = [22]; PMID 28955199; doi:10.3389/fnmol.2017.00282; 22. Osmakov D.I. Koshelev S.G. Andreev Y.A. Kozlov S.A. Endogenous Isoquinoline Alkaloids Agonists of Acid-Sensing Ion Channel Type 3 Front. Mol. Neurosci. 2017 10 282 10.3389/fnmol.2017.00282 2895519; conditions: cited from earlier work; for Effect on rat ASIC3: physiological pH, prevents steady-state desensitization, ref [22]
# human ASIC3 channels = system: human ASIC3 channels; set-up: method as in 2 sources, ref [20] = [20]; PMID 29277899; doi:10.1111/bph.14134; 20. Osmakov D.I. Koshelev S.G. Andreev Y.A. Dubinnyi M.A. Kublitski V.S. Efremov R.G. Sobolevsky A.I. Kozlov S.A. Proton-independent activation of acid-sensing ion channel 3 by an alkaloid, lindoldham ||| ref [22] = [22]; PMID 28955199; doi:10.3389/fnmol.2017.00282; 22. Osmakov D.I. Koshelev S.G. Andreev Y.A. Kozlov S.A. Endogenous Isoquinoline Alkaloids Agonists of Acid-Sensing Ion Channel Type 3 Front. Mol. Neurosci. 2017 10 282 10.3389/fnmol.2017.00282 2895519; conditions: cited from earlier work; for Effect on human ASIC3: physiological pH, prevents steady-state desensitization, ref [22]
# ASIC1a = assay: Response of ASIC1a to nociceptin and orphanin; format: cell-based, rat; conditions: applied under the same conditions as nocistatin, pH 7.4, pH drop to 5.5; n = 4
# Experimental: Oocytes expressed rASIC1a, rASIC1b, rASIC2a, and rASIC3 homomeric channels were prepared as described. Injected oocytes were kept for two–three days at 19 °C and then for up to seven days at 15 °C in ND-96 medium supplemented with gentamycin (50 μg·mL^−1) and containing (in mM): 96 NaCl, 2 KCl, 1.8 CaCl2, 1 MgCl2, and 10 HEPES titrated to pH 7.4 with NaOH. Electrophysiological recordings were performed using the GeneClamp500 amplifier (Axon Instruments, Inverurie, UK) at a holding potential of -50 mV. The data were filtered at 20 Hz and digitized at 100 Hz using the L780 AD converter (L-Card, Moscow, Russia). Microelectrodes were filled with 3 M KCl. The external bath solution was ND-96 with pH adjusted to 7.4/7.8 (10 mM HEPES) /8.5 (10 mM Tris). Nocistatin containing solutions were freshly prepared and buffered each experimental day in ND-96 bath solution (pH 7.4/7.8/8.5). Proton-activated currents through ASIC channels were elicited by application of ND-96, in which 10 mM of HEPES was substituted with 10 mM MES at pH 5.5/ 10 mM acetic acid at pH 4.5. The whole-cell recording was performed if a response to the control pH stimulus was stable in at least two replicates. […]
# Figure S1. […] Currents were measured at a holding external bath pH 7.4 and were induced by a pH drop to 5.5. […]
# ASIC channels [3] = conditions: Supplementary Figure S1 and ref [23]; cited from earlier work
# From the text: The nocistatin in mammalian is expressed as a precursor protein coding three neuropeptides (nocistatin, nociceptin, and Orphanin FQ2). […] Nocistatin is well represented in different parts of the brain and spinal cord. […] Nocistatin was studied in animal models as a prospective molecule together with opi ...
# [4] = broad range of pH, including pH > 7.4, ref [20]
compound,measurement,setting,value
"Cc1nc(NC(=N)N)nc2ccccc12 [GMQ, 2-guanidine-4-methylquinazoline]","Modulation of K^+, Na^+ and Ca^2+ currents",[1],"modulating delayed rectifying K^+, voltage-gated Na^+, and L-type Ca^2+ currents"
same,Shape of current caused by activator,ASIC channels [2],"slowly developing, non-desensitizing and non-selective cation current"
same,Action on ASIC3,"ASIC3; pH < 7.4, ref [18]",acting on ASIC3 at pH < 7.4 through a nonproton sensor
CCCCC/C=C\C/C=C\C/C=C\C/C=C\CCCC(=O)O [arachidonic acid],Effect on ASIC3,ASIC3,evoking a constitutive depolarizing ASIC3-mediated current
COc1cc2c(cc1O)[C@H](Cc1ccc(Oc3cc(C[C@@H]4NCCc5cc(OC)c(O)cc54)ccc3O)cc1)NCC2 [lindoldhamine],Action on rat ASIC3,rat ASIC3 channels; [4],agonist and positive allosteric modulator
same,Action on human ASIC3,human ASIC3 channels; [4],agonist and positive allosteric modulator
COc1ccc(C[C@H]2c3cc(O)c(OC)cc3CCN2C)cc1O [reticuline],Effect on rat ASIC3,rat ASIC3 channels,activating human and rat ASIC3 channels at physiological pH and preventing a steady-state desensitization of the channels
same,Effect on human ASIC3,human ASIC3 channels,activating human and rat ASIC3 channels at physiological pH and preventing a steady-state desensitization of the channels
"Oc1ccc(CC2NCCc3cc(O)c(O)cc32)cc1O (stereo not drawn) [tetrahydropapaveroline (THP), tetrahydropapaveroline]",Effect on rat ASIC3,rat ASIC3 channels,activating human and rat ASIC3 channels at physiological pH and preventing a steady-state desensitization of the channels
same,Effect on human ASIC3,human ASIC3 channels,activating human and rat ASIC3 channels at physiological pH and preventing a steady-state desensitization of the channels
lysophosphatidylcholine [lysophosphatidylcholine (LPC)],Effect on ASIC3,ASIC3,evoking a constitutive depolarizing ASIC3-mediated current
"nociceptin: neuropeptide nociceptin (NC) [PNOC_RAT 135–151] (FGGFTGARKSARKLANQ; Nociceptin; UniProt Q62923 135-151, looked up, fragment)",Effect on ASIC1a,ASIC1a,no effect (neither activating nor inhibitory)
same,Activating effects on ASIC channels,ASIC channels [3],do not have activating effects on ASIC channels
"orphanin: neuropeptide orphanin (Orf) [PNOC_RAT 154–170] (FSEFMRQYLVLSMQSSQ; Orphanin FQ2; UniProt Q62923 154-170, looked up, fragment)",Effect on ASIC1a,ASIC1a,no effect (neither activating nor inhibitory)
same,Activating effects on ASIC channels,ASIC channels [3],do not have activating effects on ASIC channels

# Reference: article PMC6769468, “Endogenous Neuropeptide Nocistatin Is a Direct Agonist of Acid-Sensing Ion Channels (ASIC1, ASIC2 and ASIC3)” (Biomolecules, 2019)
